Values quoted from earlier work as cited in US20240117023A1, “METHOD” (Agency for Science, Technology and Research, priority 2021, published 2024).

System: RA and OA animal models
Conditions: in vivo; cited from earlier work

For CN1C(=O)N(C[C@H](C(=O)NO)[C@@H](CC2CCCC2)C(=O)N2CCCCC2)C(=O)C1(C)C [Trocade], the “effect in animal models” value is listed as “protective effects against RA and OA”.
